Experimental data: US10092506B2, “Encapsulation of lipophilic or amphiphilic therapeutic agents in nano-emulsion” (COMMISSARIAT A L'ENERGIE ATOMIQUE ET AUX ENERGIES …, priority 2008, dated 2018)

How the values were obtained:
[1] = fluorescence quantum yield with reference to Nile Blue perchlorate in ethanol; type: physicochemical; details: in toluene
Description: The fluorescence quantum yield of various photosensitizers formulated in a nano-emulsion and in solvent was measured with reference to Nile Blue perchlorate in ethanol, λexc 605 nm (Fref=0.27).

[2] = physico-chemical behaviour of taxol under nano-emulsion preparation and analysis conditions; type: physicochemical; details: after ultrasound, heat treatment (4 h at 60° C.) and analytical conditions (acetonitrile/water mixture)

Row | Fluorescence quantum yield F [1] | degradation of taxol [2] | Structure (SMILES)
1 | 0.38 |  | C1=Cc2nc1c(-c1ccccc1)c1ccc([nH]1)c(-c1ccccc1)c1nc(c(-c3ccccc3)c3ccc([nH]3)c2-c2ccccc2)CC1 [mTPC, meso-tetraphenylchlorine]
2 |  | absence of degradation | CC(=O)O[C@H]1C(=O)[C@@]2(C)[C@H]([C@H](OC(=O)c3ccccc3)[C@]3(O)C[C@H](OC(=O)[C@H](O)[C@@H](NC(=O)c4ccccc4)c4ccccc4)C(C)=C1C3(C)C)[C@]1(OC(C)=O)CO[C@@H]1C[C@@H]2O [paclitaxel]
